# Results reported in US20120302555A1, “METHOD OF TREATMENT USING EPROSARTAN” (priority 2008, published 2012).
# Where a name gives a salt, the structure may show the parent alone.
# Key:
# [1] = Thermodynamic stability of polymorphic forms; format: physicochemical
# Method: Crystalline eprosartan acid exists in two different polymorphic forms—the α (alpha) and β (beta) forms. The a polymorphic form of eprosartan acid has the highest thermodynamic stability of up to 200° C. Although the Examples use the α form of eprosartan acid, the β form of eprosartan acid can also be used in the same way.
# [2] = in vivo; cited from earlier work
smiles,measurement,setting,value
CCCCc1ncc(/C=C(\Cc2cccs2)C(=O)O)n1Cc1ccc(C(=O)O)cc1 [a polymorphic form of eprosartan acid],highest thermodynamic stability of up to,[1],up to 200 °C
CCCCc1ncc(/C=C(\Cc2cccs2)C(=O)O)n1Cc1ccc(C(=O)O)cc1 [eprosartan mesylate],variable and mean absolute bioavailability,[2],approximately 13%
